Data from US8399610B2, “HPV vaccine comprising peptides from host cell proteins” (University College Cardiff Consultants Limited, priority 2004, dated 2013).

Assays:
T cell line KSI 10B7 = assay: Mapping of epitope(s) recognised by T cell line KSI 10B7, IFN-γ ELISPOT with T2 cells as APC; format: cell-based, human; conditions: individual peptides, triplicate
Procedure: T cells were tested by IFN-γ ELISPOT assays against either the whole BAX peptide mixture (1-23), or different sub-pools (1-9, 10-15, 16-23) or individual peptides (10, 11, 12, 13, 14 and 15). T2 cells (which only express HLA-A*0201) were used as APC. All combinations were tested in triplicate, with 600 spots being the maximum number that could be counted in these assays; and
Further immunomagnetic enrichment, flow sorting and expansion, led to the derivation of a T cell line (KSI 10B7), with 100% specificity for BAX peptides that bound to HLA-A*0201 (data not shown). This T cell line was tested by IFN-γ ELISPOT assays against either the whole BAX peptide mixture (1-23), or different sub-pools (1-9, 10-15, 16-23) or individual peptides (10, 11, 12, 13, 14 and 15). All combinations were tested in triplicate, with 600 spots being the maximum number that could be counted in these assays. KSI 10B7 T cells recognised two similar BAX peptides (10 and 13, FIG. 9). Both these peptides were predicted to bind to HLA-A*0201 (Table 4) and had similar amino acid sequences ([…] and […]). It is believed that the KSI 10B7 T cells recognised the […] sequence that is common to both peptides.

[1] = tested on: IFN-γ producing T cells specific for the immunising peptide; assay: In vivo immunogenicity in HLA-A*0201 transgenic mice, IFN-γ ELISPOT on splenocytes; set-up: species or system HLA-A2/Kb transgenic mice; conditions: responding/immunised mice; 100 μg peptide in incomplete freunds adjuvant, splenocytes after ten to eleven days
[2] = tested on: CD8+ T cells recognising Rb7 peptide; assay: Detection of peptide specific CD8+ T cells in patient blood with fluoresceinated multimeric HLA-A2/peptide complexes; format: cell-based, human; conditions: 4 patients tested (3 with cervical cancer, 1 CIN3); low frequency
Procedure: T cells reactive against peptides of the invention should be preferentially found in HLA-A2 patients with cervical cancer. Blood samples from 4 patients (3 with cervical cancer, 1 with premalignant disease, CIN3) were tested for the presence of CD8^+ T cells recognising Rb7 peptide. Fluoresceinated multimeric HLA-A2/peptide complexes were used to measure numbers of peptide specific T cells by flow cytometry (10). […] These frequencies were similar to those previously obtained for HPV16 E7 peptide specific T cells (10).

[3] = tested on: CD8+ pentamer+ T lymphocytes; assay: Peptide:HLA-A2 pentamer staining of CD8+ T cells from healthy HLA-A2+ donors after 14 days culture with peptide; format: cell-based, human
Procedure: On day 0 and day 14 days, the numbers of peptide specific CD8^+ T cells were measured using appropriate fluoresceinated peptide:HLA-A2 pentamers. These were analysed on a flow cytometer and expressed as % of gated cells, excluding dead and […] cells.

Substance	Recognition by KSI 10B7 T cells (T cell line KSI 10B7)	Mice with significant T cell responses (IFN-γ ELISPOT) [1]	Patients in whose blood T cells specific for Rb7 peptide could be detected [2] [patients]	Frequency of peptide specific T lymphocytes, in words ([3]; 8 healthy donors (all HLA-A2+))	Healthy donors in whom T lymphocytes recognising the peptide could be detected ([3]; 8 healthy donors (all HLA-A2+) tested) [healthy donors]	Frequency of CD8+ pentamer+ cells ([3]; healthy donor 1, 14 days culture with peptide)	Frequency of CD8+ pentamer+ cells ([3]; healthy donor 2, 14 days culture with peptide)	Frequency of CD8+ pentamer+ cells ([3]; healthy donor 3, 14 days culture with peptide)	Frequency of CD8+ pentamer+ cells ([3]; healthy donor 4, 14 days culture with peptide)	Frequency of CD8+ pentamer+ cells ([3]; healthy donor 5, 14 days culture with peptide)	Frequency of CD8+ pentamer+ cells ([3]; healthy donor 6, 14 days culture with peptide)	Frequency of CD8+ pentamer+ cells ([3]; healthy donor 7, 14 days culture with peptide)	Frequency of CD8+ pentamer+ cells ([3]; healthy donor 8, 14 days culture with peptide)
IMGWTLDFL [BAX peptide 13]	recognised												
TIMGWTLDFL [BAX peptide 10]	recognised												
Rb7: peptide from Rb485-493 (Rb7) protein, derived from human Rb protein (SLLACALEV)		7/10	2	variable but generally low frequencies	8	1/2500	1/1000	1/1000	1/909	1/120	1/3333	1/2000	1/2500
